We go through eight compounds from patent US20230115945A1, “AMINOPYRIMIDINE COMPOUNDS” (TYRA BIOSCIENCES, INC., priority 2019, published 2023).

Holding throughout (type): cell-based
In test [1] the target is T1, FGFR3-BAIAP2L1 Ba/F3 cells (Homo sapiens, UniProt P22607).
T1 construct: Ba/F3 FGFR3; FGFR3--BAIAP2L1 fusion; Advanced Cellular Dynamics, (Seattle, WA); fused on or other part: Q9UHR4 (BAR/IMD domain-containing adapter protein 2-like 1)
In words: Ba/F3 cell viability assay, FGFR3. The conditions noted are these: FGFR3-BAIAP2L1 fusion Ba/F3, 48 hours, Cell Titer-Glo 2.0; read-out: Ba/F3 Cells FGFR3 (IC50 nM). An excerpt: Experimental Purpose: Recombinant kinase fusions are transduced into parental Ba/F3, which becomes dependent upon this constitutive kinase activity for IL3-independent survival. Inhibition of kinase activity leads to cell death, which is monitored using CellTiter-Glo® 2.0 (Promega) which measures intracellular ATP concentration that in turn serves as a marker for viability. FGFR1-BCR Ba/F3 and FGFR3-BAIAP2L1 Ba/F3 were obtained from Advanced Cellular Dynamics (Seattle, Wash.)
Cell Viability Assay Procedure: Cell Titer-Glo® 2.0 Luminescent cell viability assay reagent was purchased from Promega (Madison, Wis.). FGFR1-BCR Ba/F3 and FGFR3-BAIAP2L1 Ba/F3 cells were cultured in RPMI1640 media supplemented with 10% fetal bovine serum. Cultures were maintained at 37° C. in a humidified atmosphere of 5% CO2 and 95% air.
Cells were plated in 96-well clear bottom/white plates (Corning #3903) at 10,000 cells/well in 100 μl of media, incubated overnight. The next day, test compound DMSO stock solutions were made at 10 mM and 2 μM final concentration. Compounds were then added to cells in a 9-dose, 10-fold dilution series starting at 30 μM with an HP 300e Digital Dispenser (each dose was applied in triplicate). DMSO was backfilled to each well up to 301 nL total volume of test compound+DMSO, and a total of 301 nL DMSO was added to a control/no test compound well in triplicate. The cells in cell culture plates were incubated with the compounds at 37° C. and 5% CO2 for 48 hours. Then 50 μl of Cell Titer Glo 2.0 reagent was added to each well of the cell culture plates. The contents were covered from light and mixed on an orbital shaker at room temperature for 10 min. Luminescence was recorded by a Synergy H1 Microplate Reader (Biotek, Winooski, Vt.). Cells were assessed as a percentage of DMSO only treated control cells. Curves were plotted and IC50 values were calculated using the GraphPad Prism 8 program based on a sigmoidal dose-response equation (4 parameter).

The test system of test [2] is KG-1 cells (Acute Myeloid Leukemia, FGFR1OP2-FGFR1 fusion). In words: Cancer cell line cell viability assay, KG-1. The conditions noted are these: Homo sapiens, 72 hours, Cell Titer-Glo 2.0, read-out: Cancer Cell Viability Assays KG1 (IC50 nM). The text has this: To detect the change of intracellular ATP by Cell Titer-Glo® and to evaluate the inhibitory effect of the compounds on cancer cell lines by determining the in vitro IC50 value of the compounds.
Cell Titer-Glo® 2.0 Luminescent cell viability assay reagent was purchased from Promega (Madison, Wis.). RT112/84, SNU-16, and KG-1 cell lines were purchased from American Type Culture Collection (Manassas, Va.). UM-UC-14 cell line was purchased from Sigma (St. Louis, Mo.). RT112/84, UM-UC-14, SNU-16, and KG-1 cells were cultured in RPMI1640 media supplemented with 10% fetal bovine serum. Cultures were maintained at 37° C. in a humidified atmosphere of 5% CO2 and 95% air.
Cell Viability Assay Procedure: Cells were plated in 96-well clear bottom/white plates (Corning #3903) at 10,000 cells/well in 100 μl of media, incubated overnight. The next day, test compound DMSO stock solutions were made at 10 mM and 2 μM final concentration. Compounds were then added to cells in a 9-dose, 10-fold dilution series starting at 30 μM with an HP 300e Digital Dispenser (each dose was applied in triplicate). DMSO was backfilled to each well up to 301 nL total volume of test compound+DMSO, and a total of 301 nL DMSO was added to a control/no test compound well in triplicate. The cells in cell culture plates were incubated with the compounds at 37° C. and 5% CO2 for 72 hours. Then 50 μl of Cell Titer Glo 2.0 reagent was added to each well of the cell culture plates. The contents were covered from light and mixed on an orbital shaker at room temperature for 10 min. Luminescence was recorded by a Synergy H1 Microplate Reader (Biotek, Winooski, Vt.). Cells were assessed as a percentage of DMSO only treated control cells. Curves were plotted and IC50 values were calculated using the GraphPad Prism 8 program based on a sigmoidal dose-response equation (4 parameter).
A general note: In ATP-based viability assays light output follows the ATP content of the culture.

Test [3] concerns RT112/84 cells (Bladder Cancer, FGFR3-TACC3 fusion). In words: Cancer cell line cell viability assay, RT112/84. Conditions: Homo sapiens, 72 hours, Cell Titer-Glo 2.0, read-out: Cancer Cell Viability Assays RT112/84 (IC50 nM). In short, it runs like this: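 RT112/84 or SNU-16 cells (10,000/well) treated 72 h at 37° C. with a 9-dose, 10-fold series from 30 μM, in triplicate. Viability by CellTiter-Glo 2.0 luminescence relative to DMSO controls; IC50 from 4-parameter sigmoidal fit.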

T1 sequence (P22607 whole entry, change not shown, the tested form may be a part): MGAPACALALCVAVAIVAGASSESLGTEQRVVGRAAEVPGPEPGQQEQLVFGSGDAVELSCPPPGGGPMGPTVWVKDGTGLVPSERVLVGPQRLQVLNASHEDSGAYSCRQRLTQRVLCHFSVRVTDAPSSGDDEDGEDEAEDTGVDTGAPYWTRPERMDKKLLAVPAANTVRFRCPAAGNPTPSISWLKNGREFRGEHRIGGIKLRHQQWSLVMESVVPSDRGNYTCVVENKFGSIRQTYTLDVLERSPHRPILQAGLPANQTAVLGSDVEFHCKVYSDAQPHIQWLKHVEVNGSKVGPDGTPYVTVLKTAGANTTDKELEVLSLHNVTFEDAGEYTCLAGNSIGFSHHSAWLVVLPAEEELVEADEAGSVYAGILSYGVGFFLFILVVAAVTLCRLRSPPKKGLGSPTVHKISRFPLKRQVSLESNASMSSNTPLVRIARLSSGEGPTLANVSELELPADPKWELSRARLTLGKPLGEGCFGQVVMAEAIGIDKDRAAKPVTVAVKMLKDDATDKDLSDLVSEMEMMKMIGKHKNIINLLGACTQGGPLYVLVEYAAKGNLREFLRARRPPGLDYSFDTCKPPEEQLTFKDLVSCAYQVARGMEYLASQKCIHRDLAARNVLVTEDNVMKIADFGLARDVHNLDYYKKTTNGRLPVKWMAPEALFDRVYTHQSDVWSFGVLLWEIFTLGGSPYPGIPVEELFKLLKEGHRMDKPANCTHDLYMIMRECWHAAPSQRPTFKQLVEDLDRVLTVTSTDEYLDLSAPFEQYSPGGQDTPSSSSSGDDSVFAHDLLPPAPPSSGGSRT

With `C=CC(=O)Nc1ccc2c(c1)c(C)cn2-c1nc(Nc2ccc(N=S(C)(C)=O)c(F)c2)ncc1Cl` [Example 60, N-[1-[5-Chloro-2-[4-[[dimethyl(oxo)-λ^6-sulfanylidene]amino]-3-fluoro-anilino]pyrimidin-4-yl]-3-methyl-indol-5-yl]prop-2-enamide], in test [1], the GI50 worked out at 10 nM. Besides, the results for the IC50 in test [2] and in test [3] were 4 nM and 16 nM, respectively.

As to `C=CC(=O)Nc1ccc2c(c1)c(C)cn2-c1nc(Nc2ccc(N=S(C)(C)=O)cc2)ncc1Cl` [Example 61, N-[1-[5-Chloro-2-[4-[[dimethyl(oxo)-λ^6-sulfanylidene]amino]anilino]pyrimidin-4-yl]-3-methyl-indol-5-yl]prop-2-enamide], the GI50 in test [1] was found to be 15 nM. The IC50 worked out at 6 nM in test [2] and 23 nM in test [3].

Consider `C=CC(=O)Nc1ccc2c(c1)c(C)cn2-c1nc(Nc2ccc(N=S(C)(C)=O)c(F)c2)ncc1C#N` [Example 62, N-[1-[5-Cyano-2-[4-[[dimethyl(oxo)-λ^6-sulfanylidene]amino]-3-fluoro-anilino]pyrimidin-4-yl]-3-methyl-indol-5-yl]prop-2-enamide], for which the GI50 in test [1] turned out to be 46 nM. The IC50 came to 17 nM in test [2] and 64 nM in test [3].

`C=CC(=O)Nc1ccc2c(c1)c(C)cn2-c1nc(Nc2ccc(N=S(C)(C)=O)c(F)c2)ncc1C` [Example 63, N-[1-[2-[4-[[dimethyl(oxo)-λ^6-sulfanylidene]amino]-3-fluoro-anilino]-5-methyl-pyrimidin-4-yl]-3-methyl-indol-5-yl]prop-2-enamide]: the GI50 in test [1] turned out to be 5 nM. Further, the results for the IC50 in test [2] and in test [3] were 1 nM and 8 nM, respectively.

With `C=CC(=O)Nc1ccc2c(c1)c(C)cn2-c1nc(Nc2ccc(N=S(C)(C)=O)c(OC)c2)ncc1Cl` [Example 64, N-[1-[5-Chloro-2-[4-[[dimethyl(oxo)-λ^6-sulfanylidene]amino]-3-methoxy-anilino]pyrimidin-4-yl]-3-methyl-indol-5-yl]prop-2-enamide], the GI50 in test [1] was determined as 12 nM. For the same compound, the IC50 was 1 nM in test [2] and 12 nM in test [3].

Consider `C=CC(=O)Nc1ccc2c(ccn2-c2nc(Nc3ccc(N=S(C)(C)=O)cc3)ncc2Cl)c1` [Example 66, N-[1-[5-chloro-2-[4-[[dimethyl(oxo)-λ^6-sulfanylidene]amino]anilino]-pyrimidin-4-yl]indol-5-yl]prop-2-enamide], for which the GI50 in test [1] was determined as 28 nM. The IC50 in test [2] is 20 nM; in test [3] it was 113 nM.

In the case of `C=CC(=O)Nc1ccc2c(ccn2-c2nc(Nc3ccc(S(C)(=N)=O)cc3)ncc2Cl)c1` (stereo not drawn) [Example 70, N-[1-[5-Chloro-2-[4-(methylsulfonimidoyl)anilino]-pyrimidin-4-yl]indol-5-yl]prop-2-enamide], the GI50 in test [1] stood at 34 nM. Further, the figures for the IC50 in test [2] and in test [3] were 9 nM and 159 nM, respectively.

Regarding `C=CC(=O)Nc1ccc2c(-c3nc(Nc4ccc(N=S(C)(C)=O)cc4)ncc3Cl)cn(C)c2c1` [Example 92, N-[3-[5-chloro-2-[4-[[dimethyl(oxo)-λ^6-sulfanylidene]amino]anilino]pyrimidin-4-yl]-1-methyl-indol-6-yl]prop-2-enamide], in test [1], the GI50 came to 15 nM. The IC50 in test [2] is 5 nM; in test [3], 47 nM.
